Test results: ChEMBL document CHEMBL3227963, “Synthesis and antitumor activity of 4'-O-methyldaunorubicin, 4'-O-methyladriamycin, and their 4'-epi analogues” (J Med Chem, 1979)

Columns and labels:
[1] = test system: P388; assay: Antitumor activity against mouse P388 cells allografted in ip dosed mouse assessed as optimal dose; format: functional
[2] = test system: P388; assay: Antitumor activity against mouse P388 cells allografted in mouse assessed as average survival time at 2.9 mg/kg, ip relative to untreated control; format: functional; details: route intraperitoneal
[3] = test system: Mus musculus; assay: Toxicity in mouse allografted with mouse P388 cells at 2.9 mg/kg, ip; format: organism-based; design: dose 2.9 mg/kg, route intraperitoneal; details: in vivo
[4] = test system: P388; assay: Antitumor activity against mouse P388 cells allografted in mouse assessed as average survival time at 6.6 mg/kg, ip relative to untreated control; format: functional; details: route intraperitoneal
[5] = test system: Mus musculus; assay: Toxicity in mouse allografted with mouse P388 cells at 6.6 mg/kg, ip; format: organism-based; design: dose 6.6 mg/kg, route intraperitoneal; details: in vivo
[6] = test system: L1210; assay: Antitumor activity against mouse L1210 cells allografted in mouse assessed as average survival time at 4.4 mg/kg, ip relative to untreated control; format: functional; details: route intraperitoneal
[7] = test system: L1210; assay: Antitumor activity against mouse L1210 cells allografted in mouse assessed as average survival time at 6.6 mg/kg, ip relative to untreated control; format: functional; details: route intraperitoneal
[8] = test system: L1210; assay: Antitumor activity against mouse L1210 cells allografted in mouse assessed as average survival time at 10 mg/kg, ip relative to untreated control; format: functional; details: route intraperitoneal
[9] = test system: P388; assay: Antitumor activity against mouse P388 cells allografted in mouse assessed as average survival time at 20 mg/kg, ip relative to untreated control; format: functional; details: route intraperitoneal
[10] = test system: Mus musculus; assay: Toxicity in mouse allografted with mouse P388 cells at 20 mg/kg, ip; format: organism-based; design: dose 20 mg/kg, route intraperitoneal; details: in vivo
[11] = test system: L1210; assay: Antitumor activity against mouse L1210 cells allografted in mouse assessed as average survival time at 15 mg/kg, ip relative to untreated control; format: functional; details: route intraperitoneal
[12] = test system: L1210; assay: Antitumor activity against mouse L1210 cells allografted in mouse assessed as average survival time at 22.5 mg/kg, ip relative to untreated control; format: functional; details: route intraperitoneal
[13] = test system: P388; assay: Antitumor activity against mouse P388 cells allografted in mouse assessed as average survival time at 4.4 mg/kg, ip relative to untreated control; format: functional; details: route intraperitoneal
[14] = test system: Mus musculus; assay: Toxicity in mouse allografted with mouse P388 cells at 4.4 mg/kg, ip; format: organism-based; design: dose 4.4 mg/kg, route intraperitoneal; details: in vivo

Row | SMILES | Optimal dose [1] [mg/kg] | T/C [2] [%] | Activity [3] | T/C [6] [%] | T/C [7] [%] | T/C [8] [%] | also measured
1 | COc1cccc2c1C(=O)c1c(O)c3c(c(O)c1C2=O)C[C@@](O)(C(C)=O)C[C@@H]3O[C@H]1C[C@H](N)[C@H](OC)[C@H](C)O1 | 2.9 | 156 | Non-toxic |  |  |  | 
2 | COc1cccc2c1C(=O)c1c(O)c3c(c(O)c1C2=O)C[C@@](O)(C(=O)CO)C[C@@H]3O[C@H]1C[C@H](N)[C@H](OC)[C@H](C)O1 | 6.6 |  |  | 287 | 231 | 62 | T/C [4]: 270%; Activity [5]: Non-toxic
3 | COc1cccc2c1C(=O)c1c(O)c3c(c(O)c1C2=O)C[C@@](O)(C(C)=O)C[C@@H]3O[C@H]1C[C@H](N)[C@@H](OC)[C@H](C)O1 | 20 |  |  |  |  |  | T/C [9]: 174%; Activity [10]: Non-toxic
4 | COc1cccc2c1C(=O)c1c(O)c3c(c(O)c1C2=O)C[C@@](O)(C(=O)CO)C[C@@H]3O[C@H]1C[C@H](N)[C@@H](OC)[C@H](C)O1 |  |  |  |  | 169 | 187 | T/C [11]: 181%; T/C [12]: 87%
5 | COc1cccc2c1C(=O)c1c(O)c3c(c(O)c1C2=O)C[C@@](O)(C(C)=O)C[C@@H]3O[C@H]1C[C@H](N)[C@H](O)[C@H](C)O1 [DAUNORUBICIN] | 2.9 | 169 | Non-toxic |  |  |  | 
6 | COc1cccc2c1C(=O)c1c(O)c3c(c(O)c1C2=O)C[C@@](O)(C(=O)CO)C[C@@H]3O[C@H]1C[C@H](N)[C@H](O)[C@H](C)O1 [DOXORUBICIN] | 4.4 |  |  | 169 | 175 | 187 | T/C [13]: 254%; Activity [14]: Non-toxic
